# Source: patent US20260130933A1, “PHARMACEUTICAL COMPOSITION FOR PREVENTION OR TREATMENT OF NEPHROPATHY AND/OR DIABETES MELLITUS, COMPRISING ENAVOGLIFLOZIN” (DAEWOONG PHARMACEUTICAL CO., LTD., priority 2022, published 2026)
# Assay: Example 3: phase 3 trial, enavogliflozin 0.3 mg vs dapagliflozin 10 mg once a day for 24 weeks added to metformin and gemigliptin in patients with type 2 diabetes (same endpoints, rescue drug)
# Type: in vivo, human
# Conditions: for Subjects achieving therapeutic glycemic response 1, %: response 1 = HbA1c change >0.5% or HbA1c <7%; for Subjects achieving therapeutic glycemic response 2, %: response 2 = HbA1c change >0.7% or HbA1c <7%; for Subjects achieving therapeutic glycemic response 3, %: response 3 = HbA1c change >1% or HbA1c <7%
# Method: 1) when Metformin (≥1,000 mg/Day) was Administered at a Constant Dose for at Least 8 Weeks Prior to Pre-Visit (Pre-Screening) • Metformin (≥1,000 mg/day) and gemigliptin (50 mg/day) were co-administered during the 8-week stabilization period. […] 4) when Metformin (≥1,000 mg/Day) and Gemigliptin (50 mg/Day) were Co-Administered at Constant Doses for at Least 8 Weeks Prior to Pre-Visit (Prescreening) • Without a separate stabilization period, Pre-visit (pre-screening) was Visit 1 (screening).
# Subjects who met the inclusion/exclusion criteria continued to receive metformin and gemigliptin while receiving a placebo of the clinical trial drug in a single-blind (subject-blinded) state for a 2-week run-in period.
# Here, the randomized subjects were stratified according to the administration therapy (co-administration with two or less agents (one or two agents) or three or more agents) of a conventional hypoglycemic agent (before washout of another hypoglycemic agent) within 24 weeks prior to obtaining written informed consent and by an HbA1c value (<8% or ≥8%) at Visit 1 (screening) measured in the central laboratory.
# The randomized subjects were administered two tablets of the clinical trial drug corresponding to each administration group once a day, and then visited the institution at weeks 6, 12, 18, and 24 during the 24-week administration period to conduct efficacy and safety assessments. In addition, during the clinical trial period, they were instructed to exercise regularly and control their diet without changing their daily life patterns.
# • 1) Change in HbA1c at week 24 after administration of clinical trial drug compared to Visit 2 (randomization)
# • 1) Change in HbA1c at each time point of weeks 6, 12, and 18 after administration of clinical trial drug compared to Visit 2 (randomization) • 2) Change in FPG at each time point of weeks 6, 12, 18, and 24 after administration of clinical trial drug compared to Visit 2 (randomization) • 3) Proportion of subjects achieving HbA1c<7% at each time point of weeks 6, 12, 18, and 24 after administration of clinical trial drug • 4) Proportion of subjects achieving HbA1c<6.5% at each time point of weeks 6, 12, 18, and 24 after administration of clinical trial drug • 5) Proportion of subjects achieving therapeutic response (HbA1c change (HbA1c at Visit 2—HbA1c at each evaluation time point)>0.5% or HbA1c<7% at each evaluation time point compared to Visit 2 (randomization)) at each time point of weeks 6, 12, 18, and 24 after administration of clinical trial drug • 6) Proportion of subjects achieving therapeutic response (HbA1c change (HbA1c at Visit 2—HbA1c at each evaluation time point)>0.7% or HbA1c<7% at each evaluation time point compared to Visit 2 (randomization)) at each time point of weeks 6, 12, 18, and 24 after administration of clinical trial drug • 7) Proportion of subjects achieving therapeutic response (HbA1c change (HbA1c at Visit 2—HbA1c at each evaluation time point)>1% or HbA1c<7% at each evaluation time point compared to Visit 2 (randomization)) at each time point of weeks 6, 12, 18, and 24 after administration of clinical trial drug
# [1] = week 18, per-protocol set, enavogliflozin 0.3 mg, dapagliflozin 10 mg
# [2] = week 24, modified per-protocol set 1, enavogliflozin 0.3 mg, dapagliflozin 10 mg
# [3] = week 24, modified per-protocol set 2
# [4] = week 24, modified per-protocol set 2, enavogliflozin 0.3 mg, dapagliflozin 10 mg
# [5] = week 24, per-protocol set, enavogliflozin 0.3 mg, dapagliflozin 10 mg
structure (smiles),measurement,setting,value
"CCOc1ccc(Cc2cc([C@@H]3O[C@H](CO)[C@@H](O)[C@H](O)[C@H]3O)ccc2Cl)cc1 [Dapagliflozin, reference compound]","body weight, Median",[1],62.30 kg
same,"Subjects achieving therapeutic glycemic response 1, %",[1],82.93%
same,"Subjects achieving therapeutic glycemic response 2, %",[1],76.42%
same,"Subjects achieving therapeutic glycemic response 3, %",[1],70.73%
same,"FPG change from baseline, LS mean (SE)",week 24,−23.72(1.78) mg/dL
same,"HDL-C change from baseline, LS mean (SE)",week 24,4.40(0.69) mg/dL
same,"HOMA-IR change from baseline, LS mean (SE)",week 24,−0.93(0.11)
same,"HOMA-β change from baseline, LS mean (SE)",week 24,5.78(4.72)
same,"HbA1c change from baseline, LS mean (SE)",week 24,−0.86(0.05) % p
same,"HbA1c change from baseline, Mean (SD)",week 24,−0.89(0.65) % p
same,"LDL-C change from baseline, LS mean (SE)",week 24,3.12(1.85) mg/dL
same,"UACR change from baseline, LS mean (SE)",week 24,−16.13 (3.84) g/kg
same,"UGCR change from baseline, LS mean (SE)",week 24,43.51(2.26) mg/mg
same,"adiponectin change from baseline, LS mean (SE)",week 24,0.92(0.35) μg/mL
same,"body weight change from baseline, LS mean (SE)",week 24,−3.01(0.22) kg
same,"diastolic blood pressure change from baseline, LS mean (SE)",week 24,−1.89(0.70) mmHg
same,"fasting C-peptide change from baseline, LS mean (SE)",week 24,−0.08(0.02) ng/ml
same,"leptin change from baseline, LS mean (SE)",week 24,−0.57(0.51) ng/mL
same,"systolic blood pressure change from baseline, LS mean (SE)",week 24,−4.27(0.93) mmHg
same,"total cholesterol change from baseline, LS mean (SE)",week 24,5.57(2.03) mg/dL
same,"triglyceride change from baseline, LS mean (SE)",week 24,−8.78(3.94) mg/dL
same,Proportion of subjects who received a rescue drug,"week 24, FAS",0.74%
same,"Change from baseline in HDL-C, ANCOVA LS mean",[2],4.40 mg/dL
same,"Change from baseline in HDL-C, Mean",[2],4.44 mg/dL
same,"Change from baseline in HDL-C, Median",[2],4.00 mg/dL
same,"Change from baseline in LDL-C, ANCOVA LS mean",[2],3.12 mg/dL
same,"Change from baseline in LDL-C, Mean",[2],2.72 mg/dL
same,"Change from baseline in LDL-C, Median",[2],1.50 mg/dL
same,"Change from baseline in total cholesterol, ANCOVA LS mean",[2],5.57 mg/dL
same,"Change from baseline in total cholesterol, Mean",[2],4.69 mg/dL
same,"Change from baseline in total cholesterol, Median",[2],3.00 mg/dL
same,"Change from baseline in triglycerides, ANCOVA LS mean",[2],-8.78 mg/dL
same,"Change from baseline in triglycerides, Mean",[2],-13.81 mg/dL
same,"Change from baseline in triglycerides, Median",[2],-6.00 mg/dL
same,"Fasting HDL-C, Mean",[2],51.87 mg/dL
same,"Fasting HDL-C, Median",[2],50.50 mg/dL
same,"Fasting LDL-C, Mean",[2],80.13 mg/dL
same,"Fasting LDL-C, Median",[2],71.50 mg/dL
same,"Fasting total cholesterol, Mean",[2],148.49 mg/dL
same,"Fasting triglycerides, Mean",[2],118.68 mg/dL
same,"Fasting triglycerides, Median",[2],104.00 mg/dL
same,"fasting Total cholesterol, Median",[2],145.00 mg/dL
same,"Change from baseline in diastolic blood pressure, ANCOVA LS mean",[3],−1.89 mmHg
same,"Change from baseline in diastolic blood pressure, Mean",[3],−1.60 mmHg
same,"Change from baseline in diastolic blood pressure, Median",[3],−2.00 mmHg
same,"Diastolic blood pressure, Mean",[3],72.27 mmHg
same,"Diastolic blood pressure, Median",[3],73.00 mmHg
same,"Change from baseline in systolic blood pressure, ANCOVA LS mean",[4],−4.27 mmHg
same,"Change from baseline in systolic blood pressure, Mean",[4],−3.74 mmHg
same,"Change from baseline in systolic blood pressure, Median",[4],−4.00 mmHg
same,"Systolic blood pressure, Mean",[4],120.20 mmHg
same,"Systolic blood pressure, Median",[4],119.00 mmHg
same,"Adiponectin, Mean","week 24, per-protocol set",7.18 µg/mL
same,"Adiponectin, Median","week 24, per-protocol set",6.39 µg/mL
same,"Change from baseline in HOMA-IR, ANCOVA LS mean","week 24, per-protocol set",−0.93
same,"Change from baseline in HOMA-IR, Mean","week 24, per-protocol set",−0.88
same,"Change from baseline in HOMA-IR, Median","week 24, per-protocol set",−0.70
same,"Change from baseline in HOMA-β, ANCOVA LS mean","week 24, per-protocol set",5.78
same,"Change from baseline in HOMA-β, Mean","week 24, per-protocol set",7.95
same,"Change from baseline in HOMA-β, Median","week 24, per-protocol set",7.20
same,"Change from baseline in UACR, ANCOVA LS mean","week 24, per-protocol set",-16.13 g/kg
same,"Change from baseline in UACR, Mean","week 24, per-protocol set",-11.12 g/kg
same,"Change from baseline in UACR, Median","week 24, per-protocol set",-0.70 g/kg
same,"Change from baseline in UGCR, ANCOVA LS mean","week 24, per-protocol set",43.51 mg/mg
same,"Change from baseline in UGCR, Mean","week 24, per-protocol set",42.31 mg/mg
same,"Change from baseline in UGCR, Median","week 24, per-protocol set",42.35 mg/mg
same,"Change from baseline in adiponectin, ANCOVA LS mean","week 24, per-protocol set",0.92 µg/mL
same,"Change from baseline in adiponectin, Mean","week 24, per-protocol set",0.84 µg/mL
same,"Change from baseline in adiponectin, Median","week 24, per-protocol set",0.78 µg/mL
same,"Change from baseline in leptin, ANCOVA LS mean","week 24, per-protocol set",-0.57 ng/mL
same,"Change from baseline in leptin, Mean","week 24, per-protocol set",-0.74 ng/mL
same,"Change from baseline in leptin, Median","week 24, per-protocol set",-0.46 ng/mL
same,"HOMA-IR (insulin resistance), Mean","week 24, per-protocol set",1.97
same,"HOMA-IR (insulin resistance), Median","week 24, per-protocol set",1.55
same,"HOMA-β (beta-cell function), Mean","week 24, per-protocol set",48.41
same,"HOMA-β (beta-cell function), Median","week 24, per-protocol set",36.70
same,"Leptin, Mean","week 24, per-protocol set",10.10 ng/mL
same,"Leptin, Median","week 24, per-protocol set",8.14 ng/mL
same,"UACR, Mean","week 24, per-protocol set",23.58 g/kg
same,"UACR, Median","week 24, per-protocol set",10.20 g/kg
same,"UGCR, Mean","week 24, per-protocol set",43.84 mg/mg
same,"UGCR, Median","week 24, per-protocol set",42.85 mg/mg
same,"Body weight, Mean",[5],64.38 kg
same,"Change from baseline in FPG, ANCOVA LS mean",[5],-23.72 mg/dL
same,"Change from baseline in FPG, Mean",[5],-23.70 mg/dL
same,"Change from baseline in FPG, Median",[5],-20.00 mg/dL
same,"Change from baseline in body weight, ANCOVA LS mean",[5],-3.01 kg
same,"Change from baseline in body weight, Mean",[5],-2.83 kg
same,"Change from baseline in body weight, Median",[5],-2.60 kg
same,"Change from baseline in fasting C-peptide, ANCOVA LS mean",[5],-0.08 ng/mL
same,"Change from baseline in fasting C-peptide, Mean",[5],-0.07 ng/mL
same,"Change from baseline in fasting C-peptide, Median",[5],-0.10 ng/mL
same,"FPG, Mean",[5],116.82 mg/dL
same,"FPG, Median",[5],114.00 mg/dL
same,"Fasting C-peptide, Mean",[5],0.62 ng/mL
same,"Fasting C-peptide, Median",[5],0.56 ng/mL
same,"Subjects achieving HbA1c target of <6.5%, (%)",[5],17.07%
same,"Subjects achieving HbA1c target of <7%, %",[5],62.60%
same,"body weight, Median",[5],62.90 kg
same,"Subjects achieving therapeutic glycemic response 1, %",[5],85.37%
same,"Subjects achieving therapeutic glycemic response 2, %",[5],82.11%
same,"Subjects achieving therapeutic glycemic response 3, %",[5],74.80%
